Experimental data as given in patent publication US9770446B2, “Piperidine urea derivatives” (MERCK PATENT GMBH, priority 2013, dated 2017).

Assays:
Format in all cases: biochemical
[1] = target: T1, GST-tagged Tankyrase-1 (1023-1327 aa) (Homo sapiens, UniProt O95271); assay: Tankyrase 1 autoparsylation HTRF enzyme assay; details: read-out: IC50 TNKS1 enzyme assay
T1 construct: GST-tagged Tankyrase-1 (1023-1327 aa)
Experimental: (§1) Biochemical activity testing of Tankyrase 1 and 2: Autoparsylation assay
(§2) The autoparsylation assay is run in two steps: the enzymatic reaction in which GST-tagged Tankyrase-1, resp Tankyrase-2 transferred biotinylated ADP-ribose to itself from biotinylated NAD as co-substrate and the detection reaction where a time resolved FRET between cryptate labelled anti-GST bound to the GST tag of the enzyme and Xlent® labelled-streptavidin bound the biotin-parsylation residue is analysed. The autoparsylation activity was detectable directly via the increase in HTRF signal.
(§3) The autoparsylation assay is performed as 384-well HTRF® (Cisbio, Codolet, France) assay format in Greiner low volume nb 384-well microtiter plates and is used for high throughput screen. 250 nM GST-tagged Tankyrase-1 (1023-1327 aa), respectively about 250 nM GST-tagged Tankyrase-2 (873-1166 aa) and 5 μM bio-NAD (Biolog, Life science Inst., Bremen, Germany) as co-substrate are incubated in a total volume of 5 μl (50 mM HEPES, 4 mM Mg-chloride, 0.05% Pluronic F-68, 1.4 mM DTT, 0.5% DMSO, pH 7.7) in the absence or presence of the test compound (10 dilution concentrations) for 90 min at 30° C. The reaction is stopped by the addition of 1 μl 50 mM EDTA solution. 2 μl of the detection solution (1.6 μM SA-Xlent® (Cisbio, Codolet, France), 7.4 nM Anti-GST-K® (Eu-labelled anti-GST, Cisbio, Codolet, France) in 50 mM HEPES, 800 mM KF, 0.1% BSA, 20 mM EDTA, 0.1% CHAPS, pH 7.0) are added. After 1 h incubation at room temperature the HTRF is measured with an Envision multimode reader (Perkin Elmer LAS Germany GmbH) at excitation wavelength 340 nm (laser mode) and emission wavelengths 615 nm and 665 nm. The ratio of the emission signals is determined. The full value used is the inhibitor-free reaction. The pharmacological zero value used is XAV-939 (Tocris) in a final concentration of 5 μM. The inhibitory values (IC50) are determined using either the program Symyx Assay Explorer® or Condosseo® from GeneData.

[2] = target: T2, GST-tagged Tankyrase-2 (873-1166 aa) (Homo sapiens, UniProt Q9H2K2); assay: Tankyrase 2 autoparsylation HTRF enzyme assay; details: read-out: IC50 TNKS2 enzyme assay
T2 construct: GST-tagged Tankyrase-2 (873-1166 aa)
Experimental: as §1, §2, §3

[3] = target: T3, GST-tagged Tnks-2 (873-1166 aa) (Homo sapiens, UniProt Q9H2K2); assay: TNKS2 activity ELISA (autoparsylation assay)
T3 construct: GST-tagged Tnks-2 (873-1166 aa, prepared in-house); made in house
Method in brief: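 Each GST-tagged enzyme (20 ng/well) was captured overnight at 4 °C on glutathione plates, then auto-ADP-ribosylated with 10 μM biotin-NAD for 1 h at 30 °C, pH 7.7, 0.5% DMSO, compound at 10 concentrations. Streptavidin-HRP chemiluminescence measured the signal. IC50 relative to inhibitor-free reaction, with 5 μM XAV-939 defining zero.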

T2 sequence (Q9H2K2 873-1166): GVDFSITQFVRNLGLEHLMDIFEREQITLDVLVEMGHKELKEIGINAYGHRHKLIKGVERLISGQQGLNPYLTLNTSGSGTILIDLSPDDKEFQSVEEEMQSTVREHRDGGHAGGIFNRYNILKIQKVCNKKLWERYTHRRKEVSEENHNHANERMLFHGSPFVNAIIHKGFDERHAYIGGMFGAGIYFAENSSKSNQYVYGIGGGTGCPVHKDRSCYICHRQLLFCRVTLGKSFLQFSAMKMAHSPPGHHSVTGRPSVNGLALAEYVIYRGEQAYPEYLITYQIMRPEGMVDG
T3 sequence (Q9H2K2 873-1166): as above
T1 sequence (O95271 1023-1327): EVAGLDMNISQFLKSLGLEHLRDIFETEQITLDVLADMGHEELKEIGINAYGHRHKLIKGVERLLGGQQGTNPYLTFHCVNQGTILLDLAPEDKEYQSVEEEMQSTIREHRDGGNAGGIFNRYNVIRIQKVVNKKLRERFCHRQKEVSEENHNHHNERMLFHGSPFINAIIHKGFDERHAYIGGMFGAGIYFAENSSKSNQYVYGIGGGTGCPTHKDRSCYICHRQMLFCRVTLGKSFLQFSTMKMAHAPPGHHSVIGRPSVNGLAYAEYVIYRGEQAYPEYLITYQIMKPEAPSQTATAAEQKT

Row | Structure (SMILES) | IC50 [1] | IC50 [2] | IC50 [3]
1 | Cc1cccc(N(C)C(=O)N2CCC(C(=O)c3ccccc3)CC2)c1 [Compound A1, 4-benzoyl-piperidine-1-carboxylic acid methyl-m-tolyl-amide] | 300 to 3000 nM | 300 to 3000 nM | < 300 nM
2 | Cc1ccc(N(C)C(=O)N2CCC(C(=O)c3ccccc3)CC2)cc1 [Compound A2, 4-benzoyl-piperidine-1-carboxylic acid methyl-p-tolyl-amide] | 300 to 3000 nM | 300 to 3000 nM | < 300 nM
3 | COc1ccc(N(C)C(=O)N2CCC(C(=O)c3ccccc3)CC2)cc1 [Compound A4, 4-benzoyl-piperidine-1-carboxylic acid (4-methoxy-phenyl)-methyl-amide] | 300 to 3000 nM | 300 to 3000 nM | < 300 nM
4 | COc1ccc(N(C)C(=O)N2CCC(C(=O)c3ccc(C)cc3)CC2)cc1 [Compound A5, 4-(4-methyl-benzoyl)-piperidine-1-carboxylic acid (4-methoxy-phenyl)-methylamide] | < 300 nM | 300 to 3000 nM | < 300 nM
5 | COc1ccc(C(=O)C2CCN(C(=O)N(C)c3ccc(OC)cc3)CC2)cc1 [Compound A6, 4-(4-methoxy-benzoyl)-piperidine-1-carboxylic acid (4-methoxy-phenyl)methyl-amide] | < 300 nM | 300 to 3000 nM | < 300 nM
6 | COc1ccc(N(C)C(=O)N2CCC(C(=O)c3cccc(F)c3)CC2)cc1 [Compound A7, 4-(3-fluoro-benzoyl)-piperidine-1-carboxylic acid (4-methoxy-phenyl)-methylamide] | 300 to 3000 nM | 300 to 3000 nM | < 300 nM
7 | COc1ccc(N(C)C(=O)N2CCC(C(=O)c3ccc(F)cc3)CC2)cc1 [Compound A8, 4-(4-fluoro-benzoyl)-piperidine-1-carboxylic acid (4-methoxy-phenyl)-methylamide] | 300 to 3000 nM | 300 to 3000 nM | < 300 nM
8 | CN(C(=O)N1CCC(C(=O)c2ccccc2)CC1)c1ccc(F)cc1 [Compound A13, 4-benzoyl-piperidine-1-carboxylic acid (4-fluoro-phenyl)-methyl-amide] | 300 to 3000 nM | 300 to 3000 nM | < 300 nM
9 | CCN(C(=O)N1CCC(C(=O)c2ccccc2)CC1)c1ccc(OC)cc1 [Compound A14, 4-benzoyl-piperidine-1-carboxylic acid ethyl-(4-methoxy-phenyl)-amide] | < 300 nM | 300 to 3000 nM | < 300 nM
10 | COc1ccc(N(CCO)C(=O)N2CCC(C(=O)c3ccccc3)CC2)cc1 [Compound A15, 4-benzoyl-piperidine-1-carboxylic acid (2-hydroxy-ethyl)-(4-methoxy-phenyl)amide] | 300 to 3000 nM | 300 to 3000 nM | < 300 nM
11 | O=C(c1ccccc1)C1CCN(C(=O)N2CCc3ccccc32)CC1 [Compound A16, (4-benzoyl-piperidin-1-yl)-(2,3-dihydro-indol-1-yl)-methanone] | 300 to 3000 nM | 300 to 3000 nM | < 300 nM
12 | Cc1ccc(C(=O)C2CCN(C(=O)N3CCc4ccccc43)CC2)cc1 [Compound A17, (2,3-dihydro-indol-1-yl)-[4-(4-methyl-benzoyl)-piperidin-1-yl]-methanone] | 300 to 3000 nM | 300 to 3000 nM | < 300 nM
13 | COc1ccc(C(=O)C2CCN(C(=O)N3CCc4ccccc43)CC2)cc1 [Compound A18, (2,3-dihydro-indol-1-yl)-[4-(4-methoxy-benzoyl)-piperidin-1-yl]-methanone] | 300 to 3000 nM | 300 to 3000 nM | < 300 nM
14 | CCN(C(=O)N1CCC(C(=O)c2ccc(OC)c(C)c2)CC1)c1ccc(OC)cc1 [Compound A24, 4-(4-methoxy-3-methyl-benzoyl)-piperidine-1-carboxylic acid ethyl-(4-methoxy-phenyl)-amide] | < 300 nM | 300 to 3000 nM | < 300 nM
15 | COc1ccc(N(C)C(=O)N2CCC(C(=O)c3cccc(C)c3)CC2)cc1 [Compound A25, 4-(3-methyl-benzoyl)-piperidine-1-carboxylic acid (4-methoxy-phenyl)methyl-amide] | < 300 nM | 300 to 3000 nM | < 300 nM
16 | CCN(C(=O)N1CCC(C(=O)c2cccc(C)c2)CC1)c1ccc(OC)cc1 [Compound A26, 4-(3-methyl-benzoyl)-piperidine-1-carboxylic acid ethyl-(4-methoxy-phenyl)amide] | < 300 nM | 300 to 3000 nM | < 300 nM
17 | COc1ccc(N(C)C(=O)N2CCC(C(=O)c3cccc(OC)c3)CC2)cc1 [Compound A27, 4-(3-methoxy-benzoyl)-piperidine-1-carboxylic acid (4-methoxy-phenyl)methyl-amide] | < 300 nM | 300 to 3000 nM | < 300 nM
18 | CCN(C(=O)N1CCC(C(=O)c2cccc(OC)c2)CC1)c1ccc(OC)cc1 [Compound A28, 4-(3-methoxy-benzoyl)-piperidine-1-carboxylic acid ethyl-(4-methoxy-phenyl)amide] | < 300 nM | < 300 nM | < 300 nM
19 | COc1ccc(N(C)C(=O)N2CCC(C(=O)c3ccc(OC)c(F)c3)CC2)cc1 [Compound A29, 4-(3-fluoro-4-methoxy-benzoyl)-piperidine-1-carboxylic acid (4-methoxy-phenyl)-methyl-amide] | – | 300 to 3000 nM | < 300 nM
20 | CN(C(=O)N1CCC(C(=O)c2ccc(NS(C)(=O)=O)cc2)CC1)c1ccccc1 [Compound A38, 4-(4-methanesulfonylamino-benzoyl)-piperidine-1-carboxylic acid methyl-phenyl-amide] | < 300 nM | 300 to 3000 nM | < 300 nM
21 | CCOC(=O)CN(C(=O)N1CCC(C(=O)c2ccc(OC)cc2)CC1)c1ccccc1 [Compound A40, {[4-(4-methoxy-benzoyl)-piperidine-1-carbonyl]-phenyl-amino}-acetic acid ethyl ester] | < 300 nM | 300 to 3000 nM | < 300 nM
